Results taken from PubChem BioAssay (NCI).
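Values below derive from 48-hour exposures of cells grown in 96-well plates, with endpoints linearly interpolated between the two concentrations bracketing the appropriate inhibition level. GI50 = concentration required for 50% inhibition of growth. Definition used: TGI = concentration required for complete inhibition of growth.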

Columns and labels:
Assay in all cases: inhibition of tumour cell growth, NCI panel, 48 h
MOLT-4 leukemia = system: MOLT-4 leukemia
IGROV1 ovarian = system: IGROV1 ovarian
NCI-H460 lung = system: NCI-H460 lung
EKVX NSCLC = system: EKVX NSCLC
ACHN renal = system: ACHN renal
MDA-MB-435 = system: MDA-MB-435
KM12 colon = system: KM12 colon
SR leukemia = system: SR leukemia
HOP-92 NSCLC = system: HOP-92 NSCLC
SNB-75 CNS = system: SNB-75 CNS

Row | SMILES | GI50 (MOLT-4 leukemia) | TGI (MOLT-4 leukemia) | GI50 (IGROV1 ovarian) | TGI (IGROV1 ovarian) | GI50 (NCI-H460 lung) | TGI (NCI-H460 lung) | GI50 (EKVX NSCLC) | TGI (EKVX NSCLC) | GI50 (ACHN renal) | TGI (ACHN renal) | GI50 (MDA-MB-435) | TGI (MDA-MB-435) | GI50 (KM12 colon) | TGI (KM12 colon) | GI50 (SR leukemia) | TGI (SR leukemia) | TGI (HOP-92 NSCLC) | TGI (SNB-75 CNS) | GI50 (HOP-92 NSCLC) | GI50 (SNB-75 CNS)
1 | NC(N)=N/N=C/c1c(-c2cccnc2)nc2sc(Cl)cn12 | 13.6 µM | 31.6 µM | 17.5 µM | 58.5 µM | 61.2 µM | > 100 µM | 16.7 µM | 32.9 µM | 10.3 µM | 21.9 µM | 16.6 µM | 30.5 µM | 3.95 µM | 14.3 µM | 17.1 µM | > 100 µM |  |  |  | 
2 | O=C(O)c1c2c(cc3c(=O)cc(-c4ccccc4)oc13)CCCC2 |  | > 100 µM |  | > 100 µM |  | > 100 µM |  | > 100 µM |  | > 100 µM |  |  |  | > 100 µM |  |  | > 100 µM | > 100 µM |  | 
3 | CC[PH+](CC)CC.CC[PH+](CC)CC.[Au] | 5.33 µM | 24.1 µM | 14.5 µM | 34.3 µM | 23.5 µM | 60.9 µM | 5.83 µM | 11.5 µM | 17.6 µM | 31.4 µM |  |  | 16.3 µM | 33.3 µM |  |  | 15.2 µM | 29 µM | 7.43 µM | 15 µM
4 | CC(=O)OCC1OC(n2ncc(=O)[nH]c2=O)C(OC(C)=O)C1OC(C)=O (stereo not drawn) |  | > 100 µM |  | > 100 µM |  | > 100 µM |  |  |  | > 100 µM |  | > 100 µM |  | > 100 µM |  | > 100 µM | > 100 µM | > 100 µM |  | 
5 | O=C(c1ccccc1)c1nc2ccc(C(F)(F)F)cc2nc1N1CCN(c2ccccc2)CC1 | 24.6 µM | > 100 µM | 43.9 µM | > 100 µM | 52.1 µM | > 100 µM | 79.3 µM | > 100 µM | 21.6 µM | 53.7 µM | 35.6 µM | > 100 µM | 95.1 µM | > 100 µM |  |  | > 100 µM |  | 49.3 µM | 
6 | CC(C)=NNC(=S)NC12CC3CC(CC(C3)C1)C2 |  | > 100 µM |  | > 100 µM |  | > 100 µM |  | > 100 µM |  | > 100 µM |  |  |  | > 100 µM |  | > 100 µM | > 100 µM | > 100 µM |  | 
7 | Cc1ccc(C(=O)NCCN(C)C)c2nc3ccccc3cc12 |  | > 100 µM |  | > 100 µM |  | 14.7 µM |  | 4.76 µM |  | 10.3 µM |  |  |  | 6.91 µM |  |  | > 100 µM | 3.54 µM |  | 
8 | O=C1C(=O)N(c2ccc(Cl)cc2)C(=O)C(=Nc2cccc3c(=O)[nH][nH]c(=O)c23)C1c1nc2ccccc2o1 (stereo not drawn) |  | > 100 µM |  | > 100 µM |  | > 100 µM |  | > 100 µM |  | > 100 µM |  |  |  | > 100 µM |  | > 100 µM | > 100 µM | > 100 µM |  | 
9 | C=CC(=O)N1CC[C@H](n2nc(C#Cc3cc(OC)cc(OC)c3)c3c(N)ncnc32)C1 | 5.02 µM | 69.3 µM | 2.88 µM | > 100 µM | 9.97 µM | > 100 µM | 30.7 µM | > 100 µM | 3.76 µM | > 100 µM | 10.6 µM | > 100 µM | 11.2 µM | > 100 µM |  |  | 9.23 µM | 6.91 µM | 1.84 µM | 0.343 µM
10 | Cc1ccc(S(=O)(=O)OCCOCCOCCOCCOCCOS(=O)(=O)c2ccc(C)cc2)cc1 |  | 41.4 µM |  | > 100 µM |  | > 100 µM |  | > 100 µM |  | > 100 µM |  |  |  | > 100 µM |  | 90.9 µM | 99.3 µM | > 100 µM |  | 
11 | C=CC(=O)Nc1cccc(Oc2nc(Nc3ccc(N4CCN(C)CC4)cc3OC)ncc2Cl)c1 | 2.57 µM | > 23.4 µM | 1.29 µM | 3.56 µM | 3.49 µM | > 34.4 µM | 0.363 µM | 3.38 µM | 0.421 µM | 3.14 µM | 1.7 µM | 3.24 µM | 3.46 µM | 11.2 µM |  |  | 2.55 µM | 3.98 µM | 0.743 µM | 1.52 µM
12 | OCC1CCCC1O (stereo not drawn) |  | > 100 µM |  | > 100 µM |  | > 100 µM |  |  |  | > 100 µM |  | > 100 µM |  | > 100 µM |  | > 100 µM | > 100 µM | > 100 µM |  | 
13 | C=CCOC(=O)Nc1cccn([C@H](CC(C)C)C(=O)NCCC(C)C)c1=O | 61.9 µM | > 100 µM | 60.4 µM | > 100 µM | > 100 µM | > 100 µM |  |  | > 100 µM | > 100 µM | > 100 µM | > 100 µM | 92.8 µM | > 100 µM | 72.7 µM | > 100 µM | 57.8 µM | > 100 µM | 2.67 µM | 4.91 µM
14 | CN(/N=C\c1ccnc2ccccc12)c1ccccc1 |  | > 100 µM |  | > 100 µM |  | 55.5 µM |  | 91.2 µM |  | 95.8 µM |  |  |  | 37.4 µM |  |  | 50 µM | 94.9 µM |  | 
15 | O=C(O)CN(c1ccc(F)cc1)S(=O)(=O)c1ccccc1 |  | > 100 µM |  | > 100 µM |  | > 100 µM |  | > 100 µM |  | > 100 µM |  |  |  | > 100 µM |  |  | > 100 µM | > 100 µM |  | 
16 | COc1cc2c(c(OC)c1OC)-c1c(c3ccc([N+](=O)[O-])cc3c(=O)n1CCCN)C2=O | 5.82 µM | 14.2 µM | 8.7 µM | 17.1 µM | 15.9 µM | > 50 µM | 7.1 µM | 33 µM | 8.06 µM | 16.6 µM | 0.865 µM | 1.63 µM | 6.64 µM | 18.1 µM |  |  | 15.8 µM |  | 7.21 µM | 
17 | Cn1cc(C2=C(c3cn(CCCCCO)c4ccccc34)C(=O)NC2=O)c2ccccc21 | 4.71 µM | 16.6 µM | 8.04 µM | 17.9 µM | 6.01 µM | 14.8 µM |  |  | 6.82 µM | 24.8 µM | 0.815 µM | 4.4 µM | 4.22 µM | 16.1 µM | 1.57 µM | 11 µM |  | 8.9 µM |  | 1.21 µM
18 | O=[N+]([O-])C=C1c2ccccc2-c2ccccc21 |  | 53.5 µM |  |  |  | 38.9 µM |  | 37.1 µM |  | 30.6 µM |  |  |  | 31.7 µM |  | 28.5 µM |  | 40.7 µM |  | 
